# Laboratory results published in patent publication US20240024405A1, “COMPOSITIONS OF CASPASE INHIBITORS AND METHODS OF USE THEREOF” (priority 2022, published 2024).
# Where a SMILES comes first, the peptide text is derived from it. The star is where a group is joined. Cbz = O=C(OCc1ccccc1)*; CH2F = FC*
# Experiments:
# [1] = tested on: caspase-6; type: cell-based
# [2] = tested on: SARS-CoV-1; type: cell-based
# [3] = tested on: HCoV-229E; type: cell-based
# [4] = tested on: influenza virus (H1N1); type: cell-based
# [5] = tested on: enterovirus A71; type: cell-based
# [6] = tested on: MERS-CoV; type: cell-based
# [7] = tested on: MERS-CoV; type: cell-based, human
# [8] = tested on: MERS-CoV; type: cell-based, human; remark: listed apart in the source
# [9] = tested on: MERS-CoV MA; design: species or system mice; details: in vivo
# [10] = tested on: SARS-CoV-2; design: species or system Golden Syrian hamsters; details: in vivo
# [11] = tested on: MERS-CoV; type: cell-based; remark: listed apart in the source
# [12] = tested on: MERS-CoV; type: cell-based; remark: listed apart in the source
# [13] = molecular target: T1, caspase-6 (Homo sapiens, UniProt P55212); type: cell-based
# T1 construct: expressed in transfected cells
# T1 sequence (P55212 24-179 limits assumed): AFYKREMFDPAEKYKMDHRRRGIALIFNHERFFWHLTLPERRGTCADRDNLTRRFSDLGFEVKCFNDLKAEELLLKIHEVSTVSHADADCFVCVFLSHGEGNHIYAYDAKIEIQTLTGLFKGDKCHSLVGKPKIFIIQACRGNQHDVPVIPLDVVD
# T1 sequence (P55212 194-293 limits assumed): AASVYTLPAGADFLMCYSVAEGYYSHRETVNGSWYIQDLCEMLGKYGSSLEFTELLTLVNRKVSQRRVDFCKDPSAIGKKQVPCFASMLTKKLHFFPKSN
# [14] = tested on: MERS-CoV; type: cell-based; remark: listed apart in the source
# [15] = tested on: rMERS-CoV/TKKD; type: cell-based, MERS-CoV
# [16] = tested on: rMERS-CoV/TKKA; type: cell-based, MERS-CoV
# [17] = tested on: SARS-CoV-2
# [18] = tested on: MERS-CoV
# [19] = tested on: HCoV-OC43
compound,measurement,setting,value
CN[C@@H]1C[C@H]2O[C@@](C)([C@@H]1OC)n1c3ccccc3c3c4c(c5c6ccccc6n2c5c31)C(=O)NC4 [Staurosporine],Caspase-6 activity in cell lysate,[1],activated
"CC[C@H](C)[C@H](NC(=O)[C@H](CCC(=O)OC)NC(=O)[C@@H](NC(=O)OCc1ccccc1)C(C)C)C(=O)N[C@@H](CC(=O)OC)C(=O)CF [z-VEID-fmk, Z-Val-Glu(OMe)-Ile-Asp(OMe)-CH2F] (Cbz-VE(OMe)ID(OMe)-CH2F)",SARS-CoV-1 replication (N gene copy),[2],attenuated
same,HCoV-229E replication (N gene copy),[3],attenuated
same,H1N1 replication (M gene copy),[4],did not impact
same,Enterovirus A71 replication (VP1 gene copy),[5],did not impact
same,MERS-CoV replication among specific caspase inhibitors (MERS-CoV N-positive cells),[6],most dramatically limited
same,MERS-CoV nucleocapsid (N) protein and N gene expression in human lung tissues,[7],significantly reduced
same,MERS-CoV replication in human intestinal organoids,[8],inhibited
same,Inhibition of production of infectious virus particles in human intestinal organoids,[8]; 100 µM,approximately 80%
same,Expression of pro-inflammatory cytokines and chemokines in mouse lungs,[9],significantly attenuated
same,Body weight loss of infected mice,[9]; mouse,largely inhibited
same,MERS-CoV MA replication in the lungs,[9]; mouse,effectively reduced
same,Survival of infected hDPP4 KI mice,[9]; mouse,80%
same,Alveolar space immune cells infiltration,[10]; hamster,dramatically inhibited
same,Body weight of infected hamsters,[10]; hamster,significant improvements
same,Lung damage by histopathological scores,[10]; hamster,significantly ameliorated
same,"Tissue damage: bronchiolitis, alveolitis and vasculitis",[10]; hamster,significantly ameliorated
same,Expression of virus-induced pro-inflammatory cytokines and chemokines in hamster lungs,[10],ameliorated
same,Hamster lung pathology (H&E),[10],markedly improved
same,Number of viral N-protein positive cells in hamster lungs,[10],reduced
same,SARS-CoV-2 replication in the hamster lungs,[10],significantly reduced
same,Virus replication when inhibitor added during MERS-CoV inoculation,[11],did not reduce
same,Viral inhibitory effect in stable caspase-6 knockdown cells,[12],largely diminished
same,Cleavage of MERS-CoV N by co-expressed caspase-6,[13],completely abolished
same,N cleavage in MERS-CoV-infected cells,[13],similarly inhibited
same,Antiviral effect of z-VEID-fmk when the IFN pathway is non-functional,[14],diminished
same,Replication of rMERS-CoV/TKKD,[15],remained effective
same,Replication of rMERS-CoV/TKKA,[16],not limited
same,SARS-CoV-2 replication (RdRp gene copy),[17],attenuated
same,IC50,[18],21.1 µM
same,Inhibitory effect on MERS-CoV replication across cell types,[18],conserved across different cell types exceptVeroE6 cells
same,MERS-CoV replication (N gene copy),[18],attenuated
same,HCoV-OC43 replication (N gene copy),[19],attenuated
same,IC50,[19],30.6 µM
z-VAD-fmk,SARS-CoV-1 replication with pan-caspase inhibitor,[2],similarly limited
same,HCoV-229E replication with pan-caspase inhibitor,[3],similarly limited
same,SARS-CoV-2 replication with pan-caspase inhibitor,[17],similarly limited
same,MERS-CoV replication with pan-caspase inhibitor,[18],significantly limited
same,HCoV-OC43 replication with pan-caspase inhibitor,[19],similarly limited
